Laboratory results: BigSolDB 2.1

c1ccc2c(c1)Nc1ccccc1S2
solubility (mole fraction)
Settings | 298.2 K | 308.2 K | 318.2 K | 328.2 K | 338.2 K
in ethanol | 0.00876 | 0.01 | 0.0122 | 0.0145 | –
in propylene glycol | 0.00416 | 0.0054 | 0.00656 | 0.00763 | 0.00852
in water | 1.56e-07 | 1.98e-07 | 2.52e-07 | 3.58e-07 | 4.91e-07
